The text below walks through data of patent US5948913A, “Hydrate for drug use” (Daiichi Pharmaceutical Co., Ltd., priority 1994, dated 1999).

Where a name gives a salt, the structure may show the parent alone. Read-outs that look alike come from different tables or passages of the source. Where only a bound is given, the exact number is not on record here.

Data set [1] is described as follows: Weight / moisture change as a function of humidity. The class given is physicochemical. The procedure: On the other hand, when methanol was used as the solvent at the time of crystal precipitation, the thus obtained hydrochloride anhydrate of the compound of formula (1) also contained methanol, but it was able to remove the contained methanol almost completely when the crystals were dried with heating (120° C.) under a reduced pressure for several days or more.
(§1) (FIG. 2). Also, changes in its appearance were hardly found and its changes in the content (determination by HPLC) were not found under dry heating conditions (50° C., tightly sealed in a bottle, 1 month) or wet heating conditions (40° C., 75% humidity, 1 month).
FIG. 1 is a graph showing changes in the weight of 3-[2-[4-(3-chloro-2-methylphenyl)-1-piperazinyl]ethyl]-5,6-dimethoxy-1-(4- imidazolylmethyl)-1H-indazole hydrochloride anhydrate plotted as a function of humidity,
FIG. 2 is a graph showing changes in the weight of the 3.5-hydrate of the present invention plotted as a function of humidity, […]

A further data set relates to rhesus monkeys. Put plainly: Central nervous inhibition actions. Format: in vivo, rhesus monkey. The following applies: 10 mg/kg intravenous injection. Here is the method: (§2) Particularly serious actions upon hemodynamics and electrocardiogram were not observed in dogs, and significant central nervous inhibition actions were not observed in rhesus monkeys even when a dose of 10 mg/kg was administered by intravenous injection.

In data set [2] the test system is rat microsphere cerebral embolus model. Description: Anti-edema effect in rat microsphere cerebral embolus model. The following applies: 8 hr, intravenous infusion, 24 hours after operation. The class given is in vivo. The procedure: This test was carried out in accordance with the method of Nobutaka Demura et al. (Neuroscience Res., 17, 23-30 (1983)).
Under halothane anesthesia, a Slc;Wis rat (about 300 g) which has been treated with caudal vein cannulation in advance was subjected to neck incision to tear off the left side common carotid artery. Wing process palate artery and external carotid artery on the same side were also torn off and subjected to artery clipping. Carbon microspheres (50±10 μm in diameter) were suspended in 20% dextran and injected into the left side common carotid artery to effect dispersion of the microspheres in the left cerebral hemisphere via the left internal carotid artery, the common carotid artery was immediately clipped to stop bleeding from the microsphere-injected part, and then the artery clip was removed to restart blood circulation. Thereafter, each drug solution was continuously injected using an infusion pump from the catheter which has been inserted into caudal vein.
Each animal was sacrificed by decapitation 24 hours after the operation, and the brain was excised immediately after the decapitation to measure wet weights of both left and right hemispheres. Each tissue was then dried overnight at 150° C. to measure its dry weight and to calculate water content of each hemisphere.
As a control group, a vehicle group (20% dextran only) was arranged and treated in the same manner.

A further data set has as its system dogs. Description: Actions upon hemodynamics and electrocardiogram. The class given is in vivo, dog. Here is the method: as §2
In data set [3] the test system is mouse nitrogen-loaded hypoxia model. Description: Mouse nitrogen-loaded hypoxia model. The class given is in vivo. Conditions: mice, 30 mg/kg oral, 60 minutes before nitrogen gas feeding. Here is the method:
This test was carried out in accordance with the method of Albert Wauquier et al. (Japan J. Pharmacol., 38, 1-7 (1985)).
A total of 9 to 10 mice were used in 1 group, and each animal 60 minutes after oral administration of a drug to be tested (30 mg/kg) was put into a transparent container (500 ml capacity) equipped with an air outlet and then the container was fed with nitrogen gas at a rate of 5.0 L/min. The period of time from the commencement of gas feeding until respiratory arrest was measured.

The target of data set [4] is calmodulin-dependent phosphodiesterase (PDE). Put plainly: Calmodulin inhibition action (calmodulin-dependent phosphodiesterase inhibition). The following applies: CaM and CaM-PDE of bovine brain origin, [3H]-cGMP, 30° C., 10 minutes; read-out: PDE inhibition effect, IC50. The class given is biochemical.
The test system of data set [5] is hippocampus CA1 nerve cells. Put plainly: Changes in hippocampus nerve cells in cerebral ischemia model. The class given is in vivo. The following applies: jird, 5 minutes cerebral ischemia, 100 mg/kg oral 1 hour after ischemia loading. The procedure: When transient cerebral ischemia is loaded on a jird, hippocampus nerve cells start to get necrosis several days thereafter, and such a change is called delayed nerve cell death. The following test was carried out in accordance with the method of T. Kirino (Brain Res., 239, 57-69 (1982)). That is, each jird was loaded with 5 minutes of cerebral ischemia and then sacrificed to count the number of nerve cells remained in the hippocampus CA1 region.

For the next data set, the system named is rats. Conditions: rat, in vivo. The procedure: (§3) With regard to the toxicity, its oral single administration toxicity was 200 mg/kg or more, and serious side effects were not observed in rats by repeated oral administration toxicity test over 10 days and repeated intravenous injection toxicity test over 10 days.
For data set [6] the following is noted: in vivo. The procedure: as §3
A short description of data set [7]: Storage stability under dry heating and wet heating conditions. Format: physicochemical. Here is the method:
as §1

The mark [8] stands for this setting: dry heating conditions (50° C., tightly sealed in a bottle, 1 month).
Where [9] appears, read: wet heating conditions (40° C., 75% humidity, 1 month).

In the case of `COc1cc2c(CCN3CCN(c4cccc(Cl)c4C)CC3)nn(Cc3c[nH]cn3)c2cc1OC` [Inventive Example 2, 3-[2-[4-(3-Chloro-2-methylphenyl)-1-piperazinyl]ethyl]-5,6-dimethoxy-1-(4-imidazolylmethyl)-1H-indazole 1.5-hydrochloride (anhydrous crystals)], in data set [1] (room temperature, anhydrate after removal of methanol, FIG. 1), the “moisture absorption in response to environmental humidity” value is “absorb moisture in response to the environmental humidity”.

Take `COc1cc2c(CCN3CCN(c4cccc(Cl)c4C)CC3)nn(Cc3c[nH]cn3)c2cc1OC` [compound of the present invention, 3-[2-[4-(3-chloro-2-methylphenyl)-1-piperazinyl]ethyl]-5,6-dimethoxy-1-(4-imidazolylmethyl)-1H-indazole]: in the data set with rhesus monkeys, the “significant central nervous inhibition actions” value is reported as “not observed”. In addition, the entries for the “Water content, Control Side (right hemisphere)” value in data set [2] (dose 1 mg/kg/hr) and in data set [2] (dose 2 mg/kg/hr) were 78.8 ± 0.1% and 78.7 ± 0.1%, respectively. In addition, the “Water content, Disease Side (left hemisphere)” value is 80.1 ± 0.4% in data set [2] (dose 1 mg/kg/hr) and 79.8 ± 0.3% in [2] (dose 2 mg/kg/hr). Also, the “particularly serious actions upon hemodynamics and electrocardiogram” value with dogs is given as “not observed”. Besides, the “increasing ratio of time until respiratory arrest (control group defined as 100%)” value in [3] was 15.1%. For the same molecule, the IC50 in data set [4] stood at 5.46 µM. Besides, the “protecting effect against nerve cell death” value in [5] is recorded as “distinct protecting effect”. The “Hippocampus Nerve Cell Density” value in [5] (CA1 region) turned out to be 131 ± 21.2 cells/mm. Besides, the serious side effects result with rats (iv) and in the data set on rats (po) was “not observed” in each case. Further, the “oral single administration toxicity” value in [6] was no less than 200 mg/kg.

As to `COc1cc2c(CCN3CCN(c4cccc(Cl)c4C)CC3)nn(Cc3c[nH]cn3)c2cc1OC` [Inventive Example 3, 3-[2-[4-(3-Chloro-2-methylphenyl)-1-piperazinyl]ethyl]-5,6-dimethoxy-1-(4-imidazolylmethyl)-1H-indazole dihydrochloride 3.5-hydrate], in data set [7] (setting [8]), the changes in appearance result is recorded as “hardly found” and the “changes in the content (determination by HPLC)” value is recorded as “not found”. In addition, in data set [7] (setting [9]), the changes in appearance result is given as “hardly found” and the “changes in the content (determination by HPLC)” value was “not found”. Moreover, in [1] (relative humidity changed from about 20% to about 80% at 25° C., FIG. 2), the “changes in powder X-ray diffraction pattern or detectable water content” value is reported as “did not show changes”.
